# Measurements as given in US11453858B2, “Human plasma-like medium” (Whitehead Institute for Biomedical Research, priority 2016, dated 2022).
# Columns and labels:
# NOMO1 cells = assay: 5-FU treatment for LC/MS (intracellular 5-FU, FdUMP, FUMP); settings: 20 μM 5-FU, 24 hr
# recombinant UMPS = molecular target: T1, recombinant UMPS (Homo sapiens, UniProt P11172); assay: in vitro UMPS activity assay (LC/MS detection of OMP and UMP); assay type: biochemical; settings: for UMP production by UMPS / abundance of OMP: increasing concentrations of inhibitor
# T1 construct: The UMPS gene was amplified from the pDONR223-UMPS template using the primers JC624/JC625; made in house; host or cells: HEK-293T cells, transient transfection, anti-FLAG immunopurification
# T1 sequence (P11172 2-480 limits assumed): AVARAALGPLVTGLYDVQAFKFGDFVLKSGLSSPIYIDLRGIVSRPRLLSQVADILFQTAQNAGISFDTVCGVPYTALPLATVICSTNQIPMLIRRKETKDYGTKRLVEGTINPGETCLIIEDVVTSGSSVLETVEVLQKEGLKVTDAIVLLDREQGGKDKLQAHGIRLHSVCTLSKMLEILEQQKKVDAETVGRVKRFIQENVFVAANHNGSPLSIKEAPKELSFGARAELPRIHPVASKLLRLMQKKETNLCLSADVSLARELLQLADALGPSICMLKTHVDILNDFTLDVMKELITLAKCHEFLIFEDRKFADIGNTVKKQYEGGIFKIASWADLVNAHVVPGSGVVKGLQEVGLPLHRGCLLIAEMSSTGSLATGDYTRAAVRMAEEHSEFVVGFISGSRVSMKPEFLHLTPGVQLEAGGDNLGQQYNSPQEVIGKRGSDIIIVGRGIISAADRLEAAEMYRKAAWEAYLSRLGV
# Experimental: An UMPS mutant (Y37A, R155A), which was designed based on a recently deposited structure of the OPRT domain of human UMPS (Protein Data Bank entry 2WNS, chains A and B) (FIG. 12), had no activity and served as a negative control in the assay.
# For metabolite profiling of LIMPS activity assay samples, reaction mixtures were extracted as described (see LIMPS activity assay) and 5 μL of each sample was injected for LC/MS analysis as described for profiling media samples, except that the mass spectrometer was operated in full scan, negative ionization mode only.
# For orotate, PRPP, OMP, and UMP in UMPS assay samples, all settings as described for the tSIM scan used for FdUMP and FUMP were identical except that the maximum integration time was 200 msec, and the target masses were 155.0088 (corresponding to orotate), 323.0286 (corresponding to UMP), 367.0184 (corresponding to OMP), and 388.9445 (corresponding to PRPP).
# For transfection of HEK-293 T cells, 4 million cells were plated in 15 cm culture dishes. After 24 hr, cells were transfected with 15 μg of pLJC2-UMPS-3×FLAG or pLJC2-UMPS (Y37A, R155A)-3×FLAG using the polyethylenimine method (Boussif et al., 1995). After 48 hr, cells were rinsed one time with ice-cold PBS and then immediately lysed with lysis buffer (1% Triton X-100, 40 mM Tris-HCl pH 7.5, 100 mM NaCl, 5 mM MgCl2, 1 tablet of EDTA-free protease inhibitor (Roche 11580800; per 25 mL buffer), 1 tablet of PhosStop phosphatase inhibitor (Roche 04906845001; per 10 mL buffer)). The cell lysates were cleared by centrifugation at 21130 g for 10 min at 4° C. For anti-FLAG immunoprecipitation, the FLAG-M2 affinity gel (Sigma A2220) was washed 3 times in lysis buffer. For each experiment, 500 μL of a 50/50 slurry of the affinity gel was then added to a pool of clarified lysates collected from 5 individual 15 cm culture dishes, and incubated with rotation for 3 hr at 4° C. Following immunoprecipitation, the beads were washed 2 times in lysis buffer and 3 times with lysis buffer containing 500 mM NaCl. Recombinant protein was then eluted in lysis buffer containing 1 mg/mL FLAG peptide for 1 hr at 4° C. The eluent was isolated by centrifugation at 100 g for 4 min at 4° C. (BioRad micro bio-spin column 732-6204), buffer exchanged (Amicon Ultra 30K NMWL) against 20 volumes of storage buffer (40 mM Tris-HCl pH 7.5, 100 mM NaCl, 1.5 mM dTT), mixed with glycerol (final concentration 15% v/v), and finally snap-frozen with liquid nitrogen and stored at −80° C. Protein samples were quantified using Bradford reagent and a BSA standard, and verified by 12% SDS-PAGE.
# Reactions of each purified LIMPS variant (20-40 nM enzyme) with orotate (100 μM) and PRPP (300 μM) were carried out at 37° C. in 20 mM Tris-HCl pH 7.5, 5 mM Na2HPO4, […], 2 mM 2 mM dTT, 100 μM EDTA (adapted from (Han et al., 1995)), and various concentrations of putative inhibitors in a total volume of 100 μL. Following 20 min incubation, a 15 μL aliquot of the reaction mixture was removed and immediately added to 85 μL ice-cold 80% methanol for metabolite extraction, vortexed for 5 min, and centrifuged at 21130 g for 1 min at 4° C.
# Stock solutions of 6-azauridine, 6-aza-UMP, 9-methyluric acid, allantoin, allopurinol, and uric acid were made up fresh at 200 mM in 1 M NaOH, and upon appropriate dilutions, had little effect on reaction pH.
# An OMP chemical standard was not available.
# ODC domain of UMPS = molecular target: T2, ODC domain of UMPS (Homo sapiens, UniProt P11172); settings: literature; cited from earlier work
# T2 sequence (P11172 1-480): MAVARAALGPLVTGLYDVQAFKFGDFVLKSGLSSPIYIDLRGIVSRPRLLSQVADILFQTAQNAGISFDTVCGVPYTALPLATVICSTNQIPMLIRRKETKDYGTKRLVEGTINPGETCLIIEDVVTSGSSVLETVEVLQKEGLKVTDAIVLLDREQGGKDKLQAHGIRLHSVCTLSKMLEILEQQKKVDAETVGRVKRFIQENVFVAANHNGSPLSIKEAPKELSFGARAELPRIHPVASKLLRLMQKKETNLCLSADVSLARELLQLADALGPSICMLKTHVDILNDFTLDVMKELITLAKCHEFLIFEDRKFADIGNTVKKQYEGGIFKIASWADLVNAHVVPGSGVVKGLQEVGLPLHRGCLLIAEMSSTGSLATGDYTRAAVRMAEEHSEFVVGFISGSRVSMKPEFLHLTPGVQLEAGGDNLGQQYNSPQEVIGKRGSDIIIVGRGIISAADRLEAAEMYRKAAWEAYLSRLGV
# K562 cells = assay: metabolite profiling of K562 cells (intracellular pyrimidine pathway metabolites); assay type: cell-based, human
# Experimental: To determine which component(s) of HPLM^+dIFS affects the de novo pyrimidine synthesis pathway, K562 cells were cultured in HPLM^+dIFS derivatives lacking: (1) acetone, creatine, creatinine, formate, fructose, galactose, glutathione, glycerol, and hypoxanthine; (2) non-proteinogenic amino acids (8 metabolites); (3) water-soluble acids (8 metabolites); (4) urea; or (5) uric acid (FIG. 5A). […] HPLM^+dIFS contains uric acid at […], a concentration that is 40- and at least 500-fold greater than that of RPMI^+IFS and RPMI^+dIFS, respectively (FIG. 5C), and, importantly, its intracellular concentration reflects that of the corresponding culture medium (FIG. 5D).
# To determine whether uric acid might cause inhibition of UMPS, an established UMPS inhibitor was studied to see if it had similar effects on the de novo pyrimidine biosynthesis pathway as uric acid in disclosed cells. […] Using LC/MS-based metabolite profiling, a species whose mass-to-charge ratio (m/z) matched the predicted m/z of allopurinol ribonucleotide was detected, and the magnitude correlated with the concentration of allopurinol in the media (FIG. 11D). Importantly, this species could be distinguished from its isomer, IMP, by their differing chromatographic retention times. […] However, a metabolite peak consistent with a putative uric acid ribonucleotide was not detected.
# (§1) After 24 hr incubation, cells were centrifuged at 250 g for 5 min, resuspended in 1 mL ice-cold 0.9% sterile NaCl, and again centrifuged at 250 g for 5 min at 4° C. Metabolites were extracted in a 1 mL solution of 80% methanol containing 10 ng/mL phenylalanine-d8 as an internal standard. Following a 10 min vortex and centrifugation for […] 10 min at 4° C., samples were dried under nitrogen gas. Dried samples were stored at −80° C. and then resuspended in 100 μL water; 4 μL of each cell sample was injected for LC/MS analysis as described for profiling media samples. For all experiments, an additional culture replicate was set up identically and used for measuring cell number and volume, which were each measured using a Beckman Z2 Coulter Counter with a diameter setting of 8-30 μm.
# [1] = test system: certain cancer cell lines; settings: Schwartz and Handschumacher, 1979; cited from earlier work
# [2] = test system: six hematological cancer cell lines; assay: metabolite profiling of six hematological cancer cell lines; assay type: cell-based, human; settings: 350 μM uric acid added to RPMI+IFS, compared to RPMI+IFS
# Experimental: To test the hypothesis that culturing cells in a medium that better mimics the metabolic composition of human plasma alters cellular metabolism compared to that in established media, the metabolite profiles of cells cultured in HPLM^+dIFS were compared to those in RPMI^+IFS or RPMI^+dIFS.
# as §1
compound,measurement,setting,value
"O=c1[nH]cc(F)c(=O)[nH]1 [5-FU, 5-Fluorouracil]",FUMP levels,NOMO1 cells; uric acid-containing HPLM+dIFS,below the limit of detection
same,intracellular abundances of FdUMP and 5-FU,NOMO1 cells; uric acid-containing HPLM+dIFS vs lacking uric acid,little effect
O=c1cnn([C@@H]2O[C@H](COP(=O)(O)O)[C@@H](O)[C@H]2O)c(=O)[nH]1 [6-aza-UMP],UMP levels relative to reactions containing vehicle,recombinant UMPS; 6-aza-UMP at 50 μM,~3%
same,UMP production by UMPS,recombinant UMPS,dose-dependently decreased UMP production by UMPS
same,abundance of OMP,recombinant UMPS,dramatically increased the abundance of OMP
same,inhibition of the ODC domain of UMPS,ODC domain of UMPS,competitively inhibit the ODC domain of UMPS
O=c1cnn([C@@H]2O[C@H](CO)[C@@H](O)[C@H]2O)c(=O)[nH]1 [6-azauridine],direct inhibition of UMPS,recombinant UMPS,did not directly inhibit UMPS
Cn1c(=O)[nH]c2c(=O)[nH]c(=O)[nH]c21 [9-methyluric acid],direct inhibition of UMPS,recombinant UMPS,did not directly inhibit UMPS
same,"levels of orotate, orotidine, or the other intermediates in the de novo pyrimidine biosynthesis pathway","K562 cells; 350 μM in HPLM+dIFS, compared to HPLM+dIFS lacking uric acid",did not alter the levels
NC(=O)NC1NC(=O)NC1=O (stereo not drawn) [allantoin],direct inhibition of UMPS,recombinant UMPS,did not directly inhibit UMPS
O=c1[nH]cnc2c1cnn2C1O[C@H](COP(=O)(O)O)[C@@H](O)[C@H]1O (stereo partly drawn) [allopurinol ribonucleotide],inhibition of the ODC domain of UMPS,ODC domain of UMPS,competitively inhibit the ODC domain of UMPS
Oc1ncnc2[nH]ncc12 [allopurinol],direct inhibition of UMPS,recombinant UMPS,did not directly inhibit UMPS
same,"levels of carbamoylaspartate, dihydroorotate, orotate, orotidine, and OMP","K562 cells; HPLM+dIFS lacking uric acid, increasing concentrations of allopurinol",dose-dependently increased the levels
same,decrease in abundance of UTP,K562 cells; highest tested concentration of allopurinol,~30%
same,sensitivity of cancer cell lines to 5-FU,[1],reduces the sensitivity of certain cancer cell lines to 5-FU
O=c1[nH]c(=O)c2[nH]c(=O)[nH]c2[nH]1 [uric acid],direct inhibition of UMPS,recombinant UMPS,direct inhibitor of the ODC domain of UMPS
same,UMP production by UMPS,recombinant UMPS,dose-dependently inhibited UMP production by UMPS
same,abundance of OMP,recombinant UMPS,increased OMP
same,UMP levels relative to reactions containing vehicle,recombinant UMPS; uric acid at 1 mM,~30%
same,UTP abundance,[2],cell line-dependent effects on UTP abundance
same,orotate and orotidine levels,[2],greatly boosted orotate and orotidine levels
same,orotate and orotidine abundances,K562 cells; HPLM+dIFS containing increasing concentrations of uric acid,dose-dependently increased orotate and orotidine abundances
same,orotate and orotidine levels on removal of the component from HPLM+dIFS,K562 cells; dropout formulations of HPLM+dIFS,reduced orotate and orotidine levels to those of cells cultured in RPMI
same,accumulation of OMP,K562 cells; highest tested concentration (700 μM),led to a detectable accumulation of OMP
